Assay results: patent US20090093469A1, “Phenylaminopropanol Derivatives and Methods of Their Use” (WYETH, priority 2004, published 2009)
Counter-ions that a name gives are not always drawn.

target: T1, hNET (Homo sapiens, UniProt P23975); assay: Norepinephrine (NE) uptake assay in MDCK-Net6 cells stably transfected with human hNET; type: cell-based; details: MDCK-Net6, read-out: % Inhibition @ 1 μM (hNET)
T1 construct: expressed in transfected cells
Experimental: Cells were plated at 300,000/T75 flask and cells were split twice weekly. […] Cells were plated at 250,000 cells/T75 flask and split twice weekly.
On day 1, cells were plated at 3,000 cells/well in growth medium and maintained in a cell incubator (37° C., 5% CO2). On day 2, growth medium was replaced with 200 μl of assay buffer (25 mM HEPES; 120 mM NaCl; 5 mM KCl; 2.5 mM CaCl2; 1.2 mM MgSO4; 2 mg/ml glucose (pH 7.4, 37° C.)) containing 0.2 mg/ml ascorbic acid and 10 μM pargyline. Plates containing cells with 200 μl of assay buffer were equilibrated for 10 minutes at 37° C. prior to addition of compounds. A stock solution of desipramine was prepared in DMSO (10 mM) and delivered to triplicate wells containing cells for a final test concentration of 1 μM. Data from these wells were used to define non-specific NE uptake (minimum NE uptake). Test compounds were prepared in DMSO (10 mM) and diluted in assay buffer according to test range (1 to 10,000 nM). Twenty-five microliters of assay buffer (maximum NE uptake) or test compound were added directly to triplicate wells containing cells in 200 μl of assay buffer. The cells in assay buffer with test compounds were incubated for 20 minutes at 37° C. To initiate the NE uptake, [^3H]NE diluted in assay buffer (120 nM final assay concentration) was delivered in 25 μl aliquots to each well and the plates were incubated for 5 minutes (37° C.). The reaction was terminated by decanting the supernatant from the plate. The plates containing cells were washed twice with 200 μl assay buffer (37° C.) to remove free radioligand. The plates were then inverted, left to dry for 2 minutes, then reinverted and air-dried for an additional 10 minutes. The cells were lysed in 25 μl of 0.25 N NaOH solution (4° C.), placed on a shake table and vigorously shaken for 5 minutes. After cell lysis, 75 μl of scintillation cocktail was added to each well and the plates were sealed with film tape. The plates were returned to the shake table and vigorously shaken for a minimum of 10 minutes to ensure adequate partitioning of organic and aqueous solutions. The plates were counted in a Wallac Microbeta counter (PerkinElmer) to collect the raw cpm data.
For each experiment, a data stream of cpm values collected from the Wallac Microbeta counter was downloaded to a Microsoft Excel statistical application program. Calculations of EC50 values were made using the transformed-both-sides logistic dose response program written by Wyeth Biometrics Department.

T1 sequence (P23975 whole entry): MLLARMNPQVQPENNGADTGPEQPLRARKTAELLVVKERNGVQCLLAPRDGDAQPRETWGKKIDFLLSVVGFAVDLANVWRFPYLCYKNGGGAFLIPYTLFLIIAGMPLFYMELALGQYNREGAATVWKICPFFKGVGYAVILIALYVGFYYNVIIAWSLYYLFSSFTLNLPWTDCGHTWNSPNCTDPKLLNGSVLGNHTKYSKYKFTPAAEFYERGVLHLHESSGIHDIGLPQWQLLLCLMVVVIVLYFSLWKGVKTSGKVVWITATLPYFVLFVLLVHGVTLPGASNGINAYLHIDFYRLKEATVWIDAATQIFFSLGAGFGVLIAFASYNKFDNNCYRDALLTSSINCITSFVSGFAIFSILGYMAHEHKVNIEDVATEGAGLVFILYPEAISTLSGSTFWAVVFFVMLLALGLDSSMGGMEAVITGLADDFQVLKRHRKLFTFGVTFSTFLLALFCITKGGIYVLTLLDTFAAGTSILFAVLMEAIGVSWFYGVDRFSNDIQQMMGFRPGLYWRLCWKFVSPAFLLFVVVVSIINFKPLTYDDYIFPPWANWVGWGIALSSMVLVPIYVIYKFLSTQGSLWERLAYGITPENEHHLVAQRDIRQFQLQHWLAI

| SMILES | inhibition at 1 µM |
| --- | --- |
| CNC[C@@H](O)[C@H](c1cccc(OC)c1)n1ccc2ccccc21 [Example 69, (1S,2R)-1-(1H-indol-1-yl)-1-(3-methoxyphenyl)-3-(methylamino)propan-2-ol hydrochloride] | 87.5% |
| CNC[C@@H](O)[C@H](c1ccccc1)n1ccc2cc(F)ccc21 [Example 75, (1S,2R)-1-(5-fluoro-1H-indol-1-yl)-3-(methylamino)-1-phenylpropan-2-ol hydrochloride] | 88.4% |
| CNC[C@@H](O)[C@H](c1ccccc1)n1ccc2cc(OC)ccc21 [Example 76, (1S,2R)-1-(5-methoxy-1H-indol-1-yl)-3-(methylamino)-1-phenylpropan-2-ol hydrochloride] | 75.2% |
| CNC[C@@H](O)[C@H](c1cccc(F)c1)n1ccc2cc(F)ccc21 [Example 85, (1S,2R)-1-(5-fluoro-1H-indol-1-yl)-1-(3-fluorophenyl)-3-(methyl-amino)propan-2-ol hydrochloride] | 97.4% |
| CNC[C@@H](O)[C@H](c1cccc(F)c1)n1ccc2cc(C)ccc21 [Example 92, ((1S,2R)-1-(3-fluorophenyl)-3-(methylamino)-1-(5-methyl-1H-indol-1-yl)propan-2-ol hydrochloride] | 85.8% |
| CNC[C@@H](O)[C@H](c1cccc(F)c1)n1ccc2c(C)cccc21 [Example 96, ((1S,2R)-1-(3-fluorophenyl)-3-(methylamino)-1-(4-methyl-1H-indol-1-yl)propan-2-ol hydrochloride] | 98.2% |
| CCc1cn([C@@H](c2cccc(F)c2)[C@H](O)CNC)c2ccccc12 [Example 97, ((1S,2R)-1-(3-fluorophenyl)-3-(methylamino)-1-(3-ethyl-1H-indol-1-yl)propan-2-ol hydrochloride] | 99.6% |

same assay, conditions: test compound 1 μM; [3H]NE uptake, MDCK-Net6 cells; read-out: % Inhibition @ 1 μM (hNET)

| SMILES | inhibition at 1 µM |
| --- | --- |
| CNC[C@@H](O)[C@H](c1cccc(F)c1)n1cc(-c2ccccc2C)c2ccccc21 [Example 62, (1S,2R)-1-(3-fluorophenyl)-3-(methylamino)-1-[3-(2-methylphenyl)-1H-indol-1-yl]propan-2-ol] | 99.7% |
| CNC[C@@H](O)[C@H](c1ccccc1)N1CCc2cccc(C)c21 [Example 66, (1S,2R)-3-(methylamino)-1-(7-methyl-2,3-dihydro-1H-indol-1-yl)-1-phenylpropan-2-ol hydrochloride] | 86.6% |
| CNC[C@@H](O)[C@H](c1ccccc1)n1ccc2cccc(OC)c21 [Example 77, (1S,2R)-1-(7-methoxy-1H-indol-1-yl)-3-(methylamino)-1-phenylpropan-2-ol hydrochloride] | 77.3% |
| CNC[C@@H](O)[C@H](c1ccccc1)n1ccc2c(OC)cccc21 [Example 78, (1S,2R)-1-(4-methoxy-1H-indol-1-yl)-3-(methylamino)-1-phenyl propan-2-ol hydrochloride] | 70.9% |
| CNC[C@@H](O)[C@H](c1ccccc1)n1ccc2ccc(OC)cc21 [Example 79, (1S,2R)-1-(6-methoxy-1H-indol-1-yl)-3-(methylamino)-1-phenyl propan-2-ol hydrochloride] | 66% |
| CNC[C@@H](O)[C@H](c1cccc(F)c1)n1ccc2ccc(OC)cc21 [Example 81, (1S,2R)-1-(3-fluorophenyl)-1-(6-methoxy-1H-indol-1-yl)-3-(methyl-amino)propan-2-ol hydrochloride] | 58% |
| CNC[C@@H](O)[C@H](c1ccccc1)n1ccc2cccnc21 [Example 82, (1S,2R)-3-(methylamino)-1-phenyl-1-(1H-pyrrolo[2,3-b]pyridin-1-yl)propan-2-ol] | 53.9% |
| CNC[C@@H](O)[C@H](c1ccccc1)n1ccc2ccncc21 [Example 84, (1S,2R)-3-methylamino-1-phenyl-1-(1H-pyrrolo[2,3-c]pyridin-1-yl) propan-2-ol dihydrochloride] | 40.9% |
| CNC[C@@H](O)[C@H](c1cccc(F)c1)n1ccc2ccncc21 [Example 86, (1S,2R)-3-methylamino-1-(3-fluorophenyl)-1-(1H-pyrrolo[2,3-c]pyridin-1-yl) propan-2-ol dihydrochloride] | 52.7% |
| CNC[C@@H](O)[C@H](c1ccccc1)N1CCc2cc(Cl)ccc21 [Example 87, (1S,2R)-1-(5-chloro-2,3-dihydro-1H-indol-1-yl)-3-(methylamino)-1-phenylpropan-2-ol hydrochloride] | 99.7% |
| CNC[C@@H](O)[C@H](c1ccccc1)n1ccc2ccc(C)cc21 [Example 90, (1S,2R)-3-(methylamino)-1-(6-methyl-1H-indol-1-yl)-1-phenylpropan-2-ol hydrochloride] | 73.1% |
| CNC[C@@H](O)[C@H](c1ccccc1)n1ccc2cccc(C)c21 [Example 91, (1S,2R)-3-(methylamino)-1-(7-methyl-1H-indol-1-yl)-1-phenylpropan-2-ol hydrochloride] | 90.8% |
| CNC[C@@H](O)[C@H](c1ccccc1)n1ccc2c(C)cccc21 [Example 94, (1S,2R)-3-(methylamino)-1-(4-methyl-1H-indol-1-yl)-1-phenylpropan-2-ol hydrochloride] | 94.9% |
| CNC[C@@H](O)[C@H](c1ccccc1)n1ccc2cc(C)ccc21 [Example 95, (1S,2R)-3-(methylamino)-1-(5-methyl-1H-indol-1-yl)-1-phenylpropan-2-ol hydrochloride] | 97.6% |
| CNC[C@@H](O)[C@H](c1cccc(F)c1)n1cc(-c2ccccc2)c2ccccc21 [Example 98, ((1S,2R)-1-(3-fluorophenyl)-3-(methylamino)-1-(3-phenyl-1H-indol-1-yl)propan-2-ol hydrochloride] | 99.1% |
| CNC[C@@H](O)[C@H](c1ccccc1)N1C(=O)C(C)(C)c2cccc(F)c21 [Example 99, 7-fluoro-1-[(1S,2R)-2-hydroxy-3-(methylamino)-1-phenylpropyl]-3,3-dimethyl-1,3-dihydro-2H-indol-2-one hydrochloride] | 98.1% |
| CNC[C@@H](O)[C@H](c1ccccc1)N1C(=O)C(C)(C)c2ccccc21 [Example 100, 1-[(1S,2R)-2-hydroxy-3-(methylamino)-1-phenylpropyl]-3,3-dimethyl-1,3-dihydro-2H-indol-2-one hydrochloride] | 94.2% |
| CNC[C@@H](O)[C@H](c1cccc(F)c1)N1C(=O)C(C)(C)c2cccc(F)c21 [Example 101, 7-fluoro-1-[(1S,2R)-1-(3-fluorophenyl)-2-hydroxy-3-(methylamino)propyl]-3,3-dimethyl-1,3-dihydro-2H-indol-2-one hydrochloride] | 98.6% |
| CNC[C@@H](O)[C@@H](c1cccs1)n1ccc2ccccc21 [Example 102, (1S,2R)-1-(1H-indol-1-yl)-3-(methylamino)-1-(2-thienyl)propan-2-ol hydrochloride] | 95.3% |
| CNC[C@@H](O)[C@H](c1cccs1)n1ccc2ccccc21 [Example 103, (1R,2R)-1-(1H-indol-1-yl)-3-(methylamino)-1-(2-thienyl)propan-2-ol hydrochloride] | 86.1% |
| CNC[C@@H](O)[C@H](c1ccccc1)N1C(=O)C2(CCCCC2)c2ccccc21 [Example 104, 1′-[(1S,2R)-2-hydroxy-3-(methylamino)-1-phenylpropyl]spiro[cyclo-hexane-1,3′-indol]-2′(1′H)-one hydrochloride] | 99.4% |
| O[C@@H]([C@@H]1CCCN1)[C@@H](c1cccc(F)c1)n1ccc2ccccc21 [Example 105, (1S,2R)-2-(3-fluorophenyl)-2-(1H-indol-1-yl)-1-[(2S)-pyrrolidin-2-yl]ethanol hydrochloride] | 92.6% |
| O[C@H]([C@@H]1CCCN1)[C@H](c1cccc(F)c1)n1ccc2ccccc21 [Example 106, (1R,2S)-2-(3-fluorophenyl)-2-(1H-indol-1-yl)-1-[(2S)-pyrrolidin-2-yl]ethanol hydrochloride] | 85.8% |
| CNC[C@@H](O)[C@H](c1ccccc1)N1C(=O)C2(CCC2)c2ccccc21 [Example 107, 1′-[(1S,2R)-2-hydroxy-3-(methylamino)-1-phenylpropyl]spiro[cyclo-butane-1,3′-indol]-2′(1′H)-one hydrochloride] | 96.6% |
| CNC[C@@H](O)[C@H](c1ccccc1)N1C(=O)C2(CCCC2)c2ccccc21 [Example 108, 1′-[(1S,2R)-2-hydroxy-3-(methylamino)-1-phenylpropyl]spiro-[cyclopentane-1,3′-indol]-2′(1′H)-one hydrochloride] | 98.7% |
